Measurements published in paper PMC9283466, “In silico identification of two peptides with antibacterial activity against multidrug-resistant Staphylococcus aureus” (NPJ Biofilms and Microbiomes, 2022).
Converted amounts (≈) assume the structure as drawn. Bridge positions count the residues as written; N and C are the ends. Peptide text beside a SMILES is read from it.

How the values were obtained:
B. cereus = assay: microbe, parasite or virus in culture; format: cell-based, Bacillus cereus
Protocol: (§1) To determine the antimicrobial activity of the new antimicrobial peptides, HG2 and HG4, their minimum inhibitory concentrations (MICs) were determined by broth microdilution method[51] in cation adjusted Mueller Hinton broth (MHB) following the International Organisation for Standardisation (ISO) 20776-1 standard for MIC testing using a final bacterial inoculum of 5 × 10^5 CFU/ml[52]. […] The peptides dissolved in sterile distilled water were added to bacteria culture and incubated overnight at appropriate conditions. The MICs of the peptides and comparator antibiotics were recorded after 18–24 h. The minimum bactericidal concentrations (MBCs) were also determined and were taken as the lowest concentration of the antimicrobial that prevented the growth of bacterial cells after the subculture of cells (from MIC treatment) onto antibiotic-free media.

Ent. faecalis JH2-2 = assay: microbe, parasite or virus in culture; format: cell-based, Enterococcus faecalis
Protocol: as §1

Sal. typhimurium SL1344 = assay: microbe, parasite or virus in culture; format: cell-based, Salmonella enterica serovar Typhimurium
Protocol: as §1

MRSA USA300 cells = assay: ATP depletion assay; format: cell-based, Staphylococcus aureus; conditions: P = 0.018 (HG2) and 0.003 (HG4)
Protocol: Adenosine triphosphate (ATP) drives many cellular and metabolic processes and can be used to ascertain the integrity of cells. […] Briefly, in a clear 96-well plate, samples and ATP standard provided with the kit were added in a reaction mix containing ATP assay buffer, ATP Probe and Converter and Developer mix. The reaction mix was incubated in the dark at room temperature for 30 min. Absorbance (570 nm0 was then measured in a microplate spectrophotometer. The background ATP levels obtained from samples and ATP standards were autocorrected by subtracting ATP levels from blank treatments. The amount of ATP in unknown samples was determined from the ATP standard curve and calculated using the formula in the instruction manual. All measurements were performed in triplicates.

P. aeruginosa PA01 = assay: microbe, parasite or virus in culture; format: cell-based, Pseudomonas aeruginosa
Protocol: as §1

P. aeruginosa (CF) C3719 = assay: microbe, parasite or virus in culture; format: cell-based, Pseudomonas aeruginosa; conditions: CF) C3719
Protocol: as §1

[1] = test system: P. aeruginosa (CF) AMT0060; assay: microbe, parasite or virus in culture; format: cell-based, Pseudomonas aeruginosa; conditions: CF) AMT0060
Protocol: as §1

[2] = test system: P. aeruginosa (CF) LES400; assay: microbe, parasite or virus in culture; format: cell-based, Pseudomonas aeruginosa; conditions: CF) LES400
Protocol: as §1

EMRA-15 = assay: microbe, parasite or virus in culture; format: cell-based, Staphylococcus aureus
Method in brief: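 Peptides were dissolved in sterile distilled water and added to bacterial cultures at a final 5 × 10^5 CFU/ml in cation-adjusted Mueller Hinton broth. Plates were incubated overnight and MICs were read at 18–24 h following ISO 20776-1. Subculture from MIC treatments onto antibiotic-free media gave MBCs.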

Ent. faecalis = assay: microbe, parasite or virus in culture; format: cell-based, Enterococcus faecalis; conditions: Ent. faecalis; Supplementary Table 5
Protocol: as §1

Sal. typhimurium = assay: microbe, parasite or virus in culture; format: cell-based, Salmonella enterica serovar Typhimurium; conditions: Sal. typhimurium; Supplementary Table 5
Protocol: as §1

[3] = test system: L. monocytogenes NCTC 11994; assay: microbe, parasite or virus in culture; format: cell-based, Listeria monocytogenes; conditions: NCTC 11994
Protocol: as §1

List. monocytogenes = assay: microbe, parasite or virus in culture; format: cell-based, Listeria monocytogenes
Protocol: as §1

P. aeruginosa = assay: microbe, parasite or virus in culture; format: cell-based, Pseudomonas aeruginosa
Protocol: as §1

Row | SMILES | MIC (B. cereus) | MIC (Ent. faecalis JH2-2) | MIC (Sal. typhimurium SL1344) | effect on ATP concentration (MRSA USA300 cells) | MIC (P. aeruginosa PA01) | MIC (P. aeruginosa (CF) C3719) | MIC [1] | MIC [2] | Minimum inhibitory Concentrations MICs (EMRA-15) | Minimum inhibitory Concentrations MICs (Ent. faecalis) | Minimum inhibitory Concentrations MICs (Sal. typhimurium) | MIC [3] | Minimum inhibitory Concentrations MICs (List. monocytogenes) | Minimum inhibitory Concentrations MICs (P. aeruginosa)
1 | CC[C@H](C)[C@H](NC(=O)[C@H](CC(C)C)NC(=O)[C@H](CC(C)C)NC(=O)[C@H](CC(C)C)NC(=O)[C@H](CCCCN)NC(=O)[C@H](CCCCN)NC(=O)[C@@H](N)CCSC)C(=O)N[C@@H](CC(C)C)C(=O)N[C@@H](Cc1ccccc1)C(=O)N[C@H]1CSSC[C@@H](C(=O)N[C@@H](CCCCN)C(=O)N[C@@H](CCCCN)C(=O)N[C@@H](C)C(=O)N2CCC[C@H]2C(N)=O)NC(=O)CNC(=O)[C@H](C)NC(=O)[C@H](CC(C)C)NC(=O)[C@H](C)NC(=O)[C@H](CC(C)C)NC(=O)[C@H](C)NC(=O)[C@H](CC(C)C)NC1=O [HG2] (H-MKKLLLILFCLALALAGCKKAP-NH2; disulfide 10-18; N-terminus assumed) | 256 µg/mL (≈ 109 µM) | 256 µg/mL (≈ 109 µM) | 256 µg/mL (≈ 109 µM) | decrease in ATP concentration | >512 µg/mL | 64 µg/mL (≈ 27.2 µM) | 256 µg/mL (≈ 109 µM) | 64 µg/mL (≈ 27.2 µM) | – | – | – | – | – | –
2 | CC[C@H](C)[C@H](NC(=O)[C@H](CC(C)C)NC(=O)[C@H](CC(C)C)NC(=O)[C@H](C)NC(=O)CNC(=O)CNC(=O)[C@@H](NC(=O)[C@@H](NC(=O)[C@H](CC(C)C)NC(=O)[C@H](C)NC(=O)[C@H](CC(C)C)NC(=O)CNC(=O)[C@H](CC(C)C)NC(=O)[C@@H](N)C(C)C)[C@@H](C)CC)C(C)C)C(=O)N[C@@H](CCCCN)C(=O)N[C@@H](CCCCN)C(=O)N[C@@H](CCCCN)C(=O)N[C@@H](CCC(N)=O)C(=O)N[C@@H](C)C(=O)N[C@@H](CCCCN)C(=O)N[C@@H](CO)C(N)=O [HG4] (H-VLGLALIVGGALLIKKKQAKS-NH2; N-terminus and C-terminus assumed) | 512 µg/mL (≈ 242 µM) | – | – | decrease in ATP concentration | >512 µg/mL | 128 µg/mL (≈ 60.4 µM) | 256 µg/mL (≈ 121 µM) | 128 µg/mL (≈ 60.4 µM) | 32 µg/mL | 128 µg/mL | 512 µg/mL | 512 µg/mL (≈ 242 µM) | 512 µg/mL | ≥ 1024 µg/mL
